Assays:
Assay type in all cases: cell-based, human
perform = assay: Perforin mRNA by qRT-PCR in siRNA-transduced NK cells; conditions: without or with IL-15 (10 ng/ml) 16 h, vs Scr siRNA
Protocol: FIG. 8A Primary human NK cells were transduced with Cbl-b siRNA or a scrambled siRNA (Scr siRNA) for 48 h, directly followed by immunoblot analysis to determine the efficiency of siRNA (n=3 donors). […] FIG. 8B qRT-PCR was performed to quantify the level of perform mRNA (n=7 donors) in Cbl-b siRNA- and Scr siRNA-transduced primary human cells incubated without or with IL-15 (10 ng/ml) for 16 h. FIG. 8C The perform protein level in Cbl-b siRNA- and Scr siRNA-transduced primary human NK cells incubated 24 without or with IL-15 (10 ng/ml) for 24 h was measured by immunoblot analysis. The data are representative of four experiments and are summarized in the right panel. Scr, scrambled; *P<0.05, **P<0.01; ns, not significant. Data are presented as mean±SEM.
Reverse transcription-polymerase chain reaction. Total RNA was isolated from primary NK cells with the RNeasy Mini Kit (Qiagen). Complementary DNA (cDNA) was generated by Moloney murine leukemia virus (M-MLV) reverse transcriptase (Invitrogen) and amplified by qPCR with SYBR Green PCR Master Mix (Applied Biosystems) and gene-specific primers. Relative amplification values were normalized to the amplification of GAPDH or 18S rRNA.
(§1) Both groups were next incubated without or with IL-15 and co-cultured with ^51Cr labeled MV4-11, Molm-13, or EOL-1 leukemia cell lines, followed by assessment of specific lysis measured after 4 h of co-culture.

granzyme B [1] = assay: Granzyme B (GZMB) mRNA by qRT-PCR in siRNA-transduced NK cells; conditions: without or with IL-15 (10 ng/ml) 16 h, vs Scr siRNA
Protocol: (§2) FIGS. 3A-3E depict the results of a study showing that downregulation of Cbl-b enhances the cytotoxicity of primary human NK cells. (FIGS. 3A and 3B) Primary human NK cells transduced with Cbl-b siRNA or Scr siRNA for 24 h were stimulated without (FIG. 3A) or with (FIG. 3B) a low concentration of IL-15 (2 ng/ml) for 16 h, then co-cultured with ^51Cr labeled Molm-13, MV4-11 or EOL-1 leukemia cell lines for 4 h, followed by quantification of specific tumor cell lysis. Each experiment was repeated with 6 different normal donors. (FIG. 3C) qRT-PCR was performed to quantify the granzyme B (GZMB) mRNA levels (n=8 donors) in siRNA- and Scr siRNA-transduced primary human NK cells incubated without or with IL-15 (10 ng/ml) for 16 h. (FIG. 3D) The concentration of the granzyme B protein in the supernatants of Cbl-b siRNA- and Scr siRNA-transduced primary human NK cells incubated without (688.1 pg/ml vs 525.4 pg/ml; P=0.0232) or with IL-15 (10 ng/ml) for 24 h (8789 pg/ml vs 3397 pg/ml; P=0.0232) was measured by ELISA (n=8 donors). (FIG. 3E) The level of granzyme B protein in Cbl-b siRNA- and Scr siRNA-transduced primary human NK cells incubated without or with IL-15 (10 ng/ml) for 24 h was measured by immunoblot analysis. The data are representative of three experiments. Scr-scrambled; *P<0.05, **P<0.01, ***P<0.001, ****P<0.0001 by One-way or Two-way ANOVA; ns, not significant. […]

granzyme B [2] = assay: Granzyme B protein in supernatants by ELISA
Protocol: FIGS. 3A-3E depict the results of a study showing that downregulation of Cbl-b enhances the cytotoxicity of primary human NK cells. (FIGS. 3A and 3B) Primary human NK cells transduced with Cbl-b siRNA or Scr siRNA for 24 h were stimulated without (FIG. 3A) or with (FIG. 3B) a low concentration of IL-15 (2 ng/ml) for 16 h, then co-cultured with ^51Cr labeled Molm-13, MV4-11 or EOL-1 leukemia cell lines for 4 h, followed by quantification of specific tumor cell lysis. Each experiment was repeated with 6 different normal donors. (FIG. 3C) qRT-PCR was performed to quantify the granzyme B (GZMB) mRNA levels (n=8 donors) in siRNA- and Scr siRNA-transduced primary human NK cells incubated without or with IL-15 (10 ng/ml) for 16 h. (FIG. 3D) The concentration of the granzyme B protein in the supernatants of Cbl-b siRNA- and Scr siRNA-transduced primary human NK cells incubated without (688.1 pg/ml vs 525.4 pg/ml; P=0.0232) or with IL-15 (10 ng/ml) for 24 h (8789 pg/ml vs 3397 pg/ml; P=0.0232) was measured by ELISA (n=8 donors). (FIG. 3E) The level of granzyme B protein in Cbl-b siRNA- and Scr siRNA-transduced primary human NK cells incubated without or with IL-15 (10 ng/ml) for 24 h was measured by immunoblot analysis. The data are representative of three experiments. Scr-scrambled; *P<0.05, **P<0.01, ***P<0.001, ****P<0.0001 by One-way or Two-way ANOVA; ns, not significant. Data presented as mean±SEM.
ELISA. Primary NK cells were plated in an equivalent number of 100,000 cells/well in a 96-well plate in RPMI and supplemented with 10% FBS. Cells were treated with recombinant human IL-15 (10 ng/ml) for 24 h, and cell-free culture supernatant was collected and frozen at −80° C. for later use. IFN-γ concentration was measured by ELISA using anti-IFN-γ antibody from Thermo Fisher Scientific. Granzyme B concentration was measured by ELISA kit purchased from R&D.
as §1

granzyme B [3] = assay: Granzyme B protein by immunoblot in siRNA-transduced NK cells; conditions: without or with IL-15 (10 ng/ml) 24 h
Protocol: as §2, with “analysis.” for “analysis. The data are representative of three experiments. Scr-scrambled; *P<0.05, **P<0.01, ***P<0.001, ****P<0.0001 by One-way or Two-way ANOVA; ns, not significant.”
Immunoblotting. […] Densitometric analysis was performed to quantify intensity of gel bands with Image J (National Institutes of Health). […]

“Cbl-b siRNA: Cbl-b-specific Accell siRNA (Dharmacon), SEQ ID NO:1, CCUUCAUGUUCAGAUGGUU (Accell modified siRNA, pattern not given here)” was tested, and the “perform mRNA” value (perform) was “did not reach a statistical significance”, the “Granzyme B mRNA” value (granzyme B [1]) was “significantly increased” and the “concentration of granzyme B protein in supernatants” value (granzyme B [2]; with IL-15 (10 ng/ml) 24 h, n=8 donors) was 8789 pg/mL. For the same substance, the “concentration of granzyme B protein in supernatants” value (granzyme B [2]; without IL-15, n=8 donors) was 688.1 pg/mL and the “total GZMB protein” value (granzyme B [3]) was “increase of total GZMB protein”.

Reference: patent US20240299542A1, “NATURAL KILLER CELLS ENGINEERED TO REDUCE OR ELIMINATE CBL-B AND USES THEREOF” (City of Hope, priority 2021, published 2024)
